Source: patent US10806794B2, “Protease inhibitors having enhanced features” (priority 2008, dated 2020)
Where two headings read alike, the source gives them in different places.

How the values were obtained:
[1] = system: human liver microsomal proteins; experiment: Microsomal protein binding by equilibrium dialysis; assay type: in vitro ADME; details: human liver microsomes, 3 μM, fraction unbound
Procedure: PEGylated protease inhibitors were evaluated for their propensity to be bound by proteins in normal human plasma or in human liver microsome preparations using equilibrium dialysis analysis. For microsomal protein binding, test compound (final concentration=3 μM) was diluted into either buffer alone or buffer containing human liver microsomes. The protein-free and microsome-containing solutions were then added to either side of an equilibrium dialysis system and allowed to reach equilibrium at 37° C. The concentration of compound on both sides of the membrane at equilibrium was quantified by LC-MS/MS, and the fraction of compound that remains unbound (Fu) is calculated.

[2] = system: human plasma proteins; experiment: Plasma protein binding by equilibrium dialysis, human plasma; assay type: in vitro ADME; details: human plasma, 5 μM, fraction unbound
Procedure: In assays to estimate binding of test compounds to plasma proteins, test compound solutions (5 μM) are prepared in buffer and species-specific plasma (final DMSO concentration 0.5%). The plasma-containing solution is added to one side of the membrane of an equilibrium dialysis system, and the plasma-free is added to the other side. Dialysis was allowed to reach equilibrium by incubation for two hours at 37° C. The concentration of compound on both sides of the membrane was measured using LC-MS/MS.

[3] = system: CEM-SS cells
Procedure: (§1) To evaluate whether conjugated protease inhibitors retain the ability to protect against HIV-1 infection, CEM-SS cells infected with the RF strain of HIV-1 were treated with test compounds for six days, and then cell viability was monitored using the tetrazolium dye XTT. […] A value for Therapeutic Index (TI) was calculated as TC50/EC50.

[4] = target: recombinant HIV-1 protease (Human immunodeficiency virus type 1 group M subtype B (isolate HXB2) (HIV-1), UniProt P04585); experiment: Enzyme inhibition of purified HIV-1 protease (SensoLyte 520 HIV-Protease Assay Kit); assay type: biochemical; details: read-out: IC50 ± SD
Procedure: Protease inhibitors (PI) are used to treat HIV infection by preventing viral assembly and maturation through the inhibition of HIV-1 protease activity. Biochemical assays were performed to evaluate the potential of PEG-PI conjugates to inhibit HIV-1 protease activity, relative to their respective PI parent molecules. Activity assays were performed at using the SensoLyte 520 HIV-Protease Assay Kit (Anaspec Inc., San Jose, Calif.) and recombinant HIV-1 protease. Protease activity was monitored by the formation of a fluorescent reporter product generated during HIV-1 protease-mediated digestion of a quenched, fluorimetric substrate containing the p17/p24 Pr^gag cleavage site.

[5] = system: HIV-1RF; experiment: Anti-HIV cytoprotection in CEM-SS cells infected with HIV-1RF (XTT); assay type: cell-based; details: six days, XTT; read-out: CEM-SS/HIV-1RF EC50 ± SD
Procedure: as §1

[6] = system: PBMCs; experiment: PBMC cytotoxicity (XTT); assay type: cell-based, human; details: 7 days
Procedure: Mononuclear cells were isolated from fresh human peripheral blood cells by Ficoll-Hypaque density gradient by centrifugation at 600 g for 30 minutes. Banded peripheral blood mononuclear cells (PBMCs) were aspirated from the resulting interface and washed with phosphate buffered saline by low speed centrifugation. Cell viability was evaluated by Trypan Blue dye exclusion. […] Plates were incubated at 37° C., 5% CO2 for 7 days prior to cytotoxicity evaluation. XTT measurement for cytotoxicity.

[7] = system: PBMCs; experiment: PBMC macromolecule synthesis (tritiated precursor incorporation); assay type: cell-based, human; details: for Thymidine Incorporation (PBMC) TC50: DNA synthesis; for Uridine Incorporation (PBMC) TC50: RNA synthesis; for Leucine Incorporation (PBMC) TC50: protein synthesis
Procedure: Cellular macromolecule synthesis was evaluated using tritiated precursor incorporation assays. PBMCs (5×10^4 cells/well) were cultured in the presence or absence of test compound for 7 days at 37 C, 5% CO2 in a 96-well microtiter plate. On day 6 of the incubation, 1 uCi of [methyl-3H]-thymidine for DNA synthesis, [5-3H]-uridine for RNA synthesis, or [3,4,5-3H]-leucine for protein synthesis was added to compound-treated cells, and the plate was further incubated for 16 hours. The cells were transferred to a glass fiber filtermat using an Inotech cell harvester. The filtermats were washed with distilled water then sealed in a bag with scintillation fluid. Incorporated radioactivity was measured using a Wallac scintillation counter.

[8] = system: human hepatocytes; experiment: Metabolic stability in cryopreserved human hepatocytes; details: human hepatocytes, 3 uM, incubated up to one hour
Procedure: Metabolism of PI conjugates was investigated by monitoring the levels of unmetabolized parent compound following incubation with cryopreserved human or monkey hepatocytes. The use of whole hepatocytes rather than microsomes requires that the drugs cross the cell membrane to interact with intracellularly-localized metabolic enzymes, and thus provides the most relevant in vitro system for understanding overall metabolic stability of these compounds.
Test compounds (0.1 μM or 3 μM, as indicated) are incubated with cryopreserved human hepatocytes at a cell density of 0.5×10^6 viable cells/mL. […] Duplicate samples (50 μL) are removed from the incubation mixture at various timepoints up to four hours (for 0.1 μM test compound concentration), or one or two hours (for 3 μM test compound concentration), and the reaction is quenched by the addition of methanol containing internal standard (100 μL). The samples are centrifuged (2500 rpm at 4° C. for 20 min), and the supernatants at each time point pooled for cassette analysis by LC-MS/MS.

[9] = target: CYP3A4 (Homo sapiens (Human), UniProt P08684); experiment: CYP450 inhibition in human liver microsomes: CYP3A4;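 further: incubation at 37 °C started by adding 1 mM NADPH, with formation of the probe metabolite measured via LC-MS/MS or fluorescent detection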
CYP3A4, sequence (P08684 whole entry): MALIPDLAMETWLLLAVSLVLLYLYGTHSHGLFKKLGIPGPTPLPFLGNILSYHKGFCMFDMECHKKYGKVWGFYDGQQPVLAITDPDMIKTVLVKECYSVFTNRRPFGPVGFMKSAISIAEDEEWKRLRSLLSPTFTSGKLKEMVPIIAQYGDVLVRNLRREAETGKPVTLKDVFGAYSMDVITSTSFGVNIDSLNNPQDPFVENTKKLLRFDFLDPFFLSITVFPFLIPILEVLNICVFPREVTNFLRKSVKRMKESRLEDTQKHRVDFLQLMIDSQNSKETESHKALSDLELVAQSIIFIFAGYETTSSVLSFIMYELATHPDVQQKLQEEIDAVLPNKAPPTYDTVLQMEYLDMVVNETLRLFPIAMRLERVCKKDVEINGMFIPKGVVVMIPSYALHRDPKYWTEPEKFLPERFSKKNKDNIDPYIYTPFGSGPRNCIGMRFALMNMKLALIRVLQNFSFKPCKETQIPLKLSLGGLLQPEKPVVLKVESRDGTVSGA

[10] = system: Caco-2 cells; experiment: Bi-directional permeability in Caco-2 monolayers; details: for Efflux ratio (B→A/A→B): Caco-2 monolayers; for A→B, ×10^−6: human, Caco-2
Procedure: Absorption properties of various compounds were measured using bi-directional permeability assays in Caco-2 cells. […] The efflux ratio is calculated as the ratio of the Papp(B→A)/Papp(A→B).

[11] = read-out: CYP3A4 IC50 Midazolam, probe substrate midazolam
[12] = read-out: CYP3A4 IC50 Testosterone, probe substrate testosterone

| Compound | Microsomal Protein Binding Fu ± SD [1] | Plasma Protein Binding Fu ± SD [2] | CEM-SS TC50 ± SD ([3]; absence of viral infection) [nM] | IC50 [4] [nM] | EC50 [5] [nM] | XTT (PBMC) TC50 [6] [%] | Thymidine Incorporation (PBMC) TC50 [7] [%] | Uridine Incorporation (PBMC) TC50 [7] [%] | Leucine Incorporation (PBMC) TC50 [7] [%] | CLint ± SEM [8] [μL/min/10^6 cells] | IC50 [9, 11] [nM] | IC50 [9, 12] [nM] | CEM-SS TC50 ± SD [3] [nM] | Efflux ratio (B→A/A→B) [10] | A→B, ×10^−6 [10] [cm/s] |
| --- | --- | --- | --- | --- | --- | --- | --- | --- | --- | --- | --- | --- | --- | --- | --- |
| CCC(C1=C(O)CC(CCCNC(=O)OC)(CCc2ccccc2)OC1=O)c1cccc(NS(=O)(=O)c2ccc(C(F)(F)F)cn2)c1 (mixture of isomers) [mPEG0-OCO—NH-Tipranavir] | 0.887 ± 0.0749 | 0.0105 ± 0.00848 | 54300 | 0.292 | 290 | – | – | – | – | – | – | – | – | – | – |
| CCC(C1=C(O)CC(CCCNC(=O)OCCOC)(CCc2ccccc2)OC1=O)c1cccc(NS(=O)(=O)c2ccc(C(F)(F)F)cn2)c1 (mixture of isomers) [mPEG1-OCO—NH-Tipranavir] | 0.85 ± 0.184 | 0.0145 ± 0.000403 | 49500 | 0.188 | 120 | – | – | – | – | – | – | – | – | – | – |
| CCC(C1=C(O)CC(CCCNC(=O)OCCOCCOCCOC)(CCc2ccccc2)OC1=O)c1cccc(NS(=O)(=O)c2ccc(C(F)(F)F)cn2)c1 (mixture of isomers) [mPEG3-OCO—NH-Tipranavir] | 0.816 ± 0.0104 | 0.0292 ± 0.000428 | 67600 | 0.617 | 870 | – | – | – | – | – | – | – | – | – | – |
| CCC(C1=C(O)CC(CCCNC(=O)OCCOCCOCCOCCOCCOC)(CCc2ccccc2)OC1=O)c1cccc(NS(=O)(=O)c2ccc(C(F)(F)F)cn2)c1 (mixture of isomers) [mPEG5-OCO—NH-Tipranavir] | highly unbound | 0.0304 ± 0.000274 | 86100 | 0.462 | 1060 | – | – | – | – | – | – | – | – | – | – |
| C[S+](C)[O-] [DMSO, reference compound] | – | – | – | – | – | >2.0 | >2.0 | 0.06 | 0.19 | – | – | – | – | – | – |
| COCCOCCOCCOCCOCCOC(=O)N[C@@H](C(=O)NC(Cc1ccccc1)[C@@H](O)CN(Cc1ccc(-c2ccccn2)cc1)NC(=O)[C@H](NC(=O)OCCOCCOCCOCCOCCOC)C(C)(C)C)C(C)(C)C (some centres unmarked) [di-mPEG5-Atazanavir] | highly unbound | 0.537 ± 0.0412 | – | 17.3 | 1110 | – | – | – | – | 0.824 ± 0.950 | > 50000 | > 50000 | >200000 | >10.8 | 0.06 |
| COCCOCCOCCOCCOCCOCCOC(=O)N[C@@H](C(=O)NC(Cc1ccccc1)[C@@H](O)CN(Cc1ccc(-c2ccccn2)cc1)NC(=O)[C@H](NC(=O)OCCOCCOCCOCCOCCOCCOC)C(C)(C)C)C(C)(C)C (some centres unmarked) [di-mPEG6-Atazanavir] | highly unbound | 0.868 ± 0.0163 | – | 15.6 | 2540 | – | – | – | – | – | – | – | 158600 | – | – |
| COCCOCCOCCOCCOCCOCCOCCOC(=O)N[C@@H](C(=O)NC(Cc1ccccc1)[C@@H](O)CN(Cc1ccc(-c2ccccn2)cc1)NC(=O)[C@H](NC(=O)OCCOCCOCCOCCOCCOCCOCCOC)C(C)(C)C)C(C)(C)C (some centres unmarked) [di-mPEG7-Atazanavir] | highly unbound | highly unbound | – | 10.9 | 8350 | – | – | – | – | – | > 50000 | > 50000 | >200000 | >3.6 | 0.06 |
| CCCC1(CCc2ccccc2)CC(O)=C(C(CC)c2cccc(N(CCOCCOCCOC)S(=O)(=O)c3ccc(C(F)(F)F)cn3)c2)C(=O)O1 (centres unmarked) [mPEG3-amide-Tipranavir] | 0.73 ± 0.0153 | 0.014 ± 0.00166 | – | – | 80 | – | – | – | – | 1.66 ± 1.24 | 2500 | ~2100 | 1300 | – | – |
| CCCC1(CCc2ccccc2)CC(O)=C(C(CC)c2cccc(N(CCOCCOCCOCCOCCOC)S(=O)(=O)c3ccc(C(F)(F)F)cn3)c2)C(=O)O1 (centres unmarked) [mPEG5-amide-Tipranavir] | highly unbound | 0.0308 ± 0.00399 | – | – | > 200000 | – | – | – | – | 3.62 ± 0.527 | 1700 | 2800 | 12800 | – | – |
| CCC[C@@]1(CCc2ccccc2)CC(O)=C([C@H](CC)c2cccc(N(CCOCCOCCOCCOCCOCCOCCOC)S(=O)(=O)c3ccc(C(F)(F)F)cn3)c2)C(=O)O1 [mPEG7-amide-Tipranavir] | highly unbound | 0.029 ± 0.00436 | – | 12.2 | > 200000 | – | – | – | – | 0.162 ± 0.343 | 2600 | ~4000 | 14500 | – | – |
| Triton X-100 [reference compound] | – | – | – | – | – | 0.003 | 0.002 | 0.0009 | 0.0006 | – | – | – | – | – | – |
